Experiments:
S. pneumoniae ATCC 49619 = test: MIC, NCCLS broth microdilution assay; assay type: cell-based, Streptococcus pneumoniae; conditions: H = S. pneumoniae ATCC 49619
Description: (§1) Compounds according to this invention were screened for their in vitro activities against selected species of bacteria and fungi. The minimal inhibition concentration (MIC) of these compounds was determined using the National Committee for Clinical Laboratory Standards (NCCLS) broth microdilution assay in microtiter plates, as set forth in: (1) the guidelines of the National. Committee for Clinical Laboratory Standards (NCCLS) Document M7-A4 (NCCLS, 1997); (2) the guidelines of the National Committee for Clinical Laboratory Standards (NCCLS) Document M11-A4 (NCCLS, 1997); and (3) the guidelines and reference method of the National Committee for Clinical Laboratory Standards (NCCLS) Document M27-T (NCCLS, 1995). For antifungal assays, the method recommended in Murray, P R., 1995 Manual of Clinical Microbiology (ASM Press, Washington, D.C.), was employed.

E. faecalis ATCC 29212 = test: MIC, NCCLS broth microdilution assay; assay type: cell-based, Enterococcus faecalis; conditions: C = E. faecalis ATCC 29212
Description: as §1

[1] = test system: Staphylococcus aureus (ATCC 13709, a methicillin sensitive strain (MSSA)); test: MIC, NCCLS broth microdilution assay; assay type: cell-based; conditions: E = S. aureus ATCC 13709
From the text: (§2) In vitro biological activity data were collected for a variety of microorganisms, including Bacillus cereus (ATCC 11778), Staphylococcus aureus (ATCC 27660, a methicillin resistant strain (MRSA); ATCC 13709, a methicillin sensitive strain (MSSA)); Streptococcus pneumoniae (ATCC 51422, a penicillin resistant strain (PRSP)), Enterococcus faecium (ATCC 51559, a vancomycin resistant strain (VRE)), and Staphylococcus epidermidis (ATCC 12228). Additionally, antifungal activity data were collected for Candida albicans (ATCC 38247).
as §1

[2] = test system: Bacillus cereus (ATCC 11778); test: MIC, NCCLS broth microdilution assay; assay type: cell-based; conditions: A = B. cereus ATCC 11778
From the text: as §2, §1

[3] = test system: Staphylococcus aureus (ATCC 27660, a methicillin resistant strain (MRSA)); test: MIC, NCCLS broth microdilution assay; assay type: cell-based; conditions: F = S. aureus ATCC 27660
From the text: as §2, §1

[4] = test system: Candida albicans (ATCC 38247); test: Antifungal MIC assay; assay type: cell-based; conditions: B = C. albicans ATCC 38247
From the text: as §2, §1

Row | SMILES | Minimum Inhibitory Concentration (MIC) (S. pneumoniae ATCC 49619) | Minimum Inhibitory Concentration (MIC) (E. faecalis ATCC 29212) | Minimum Inhibitory Concentration (MIC) [1] | Minimum Inhibitory Concentration (MIC) [2] | Minimum Inhibitory Concentration (MIC) [3] | Minimum Inhibitory Concentration (MIC) [4]
1 | Cn1cc(NC(=O)c2cc(NC(=O)c3ccccc3F)cn2C)cc1C(=O)NCCN1CCSCC1 [Compound B-40] | +++ (+++ = MIC ≦ 4) | +++ (+++ = MIC ≦ 4) | ++ (++ = 4 < MIC < 12) | ++ (++ = 4 < MIC < 12) | ++ (++ = 4 < MIC < 12) | >32 µg/mL
2 | Cn1cc(NC(=O)c2cc(NC(=O)c3cc(NC(=O)c4ccc(Cl)cc4NCCCNC4CCCCC4)cn3C)cn2C)cc1C(N)=O [Compound B-63] | +++ (+++ = MIC ≦ 4) | >32 µg/mL | +++ (+++ = MIC ≦ 4) | + (+ = 12 ≦ MIC ≦ 32) | +++ (+++ = MIC ≦ 4) | >32 µg/mL
3 | Cn1cc(NC(=O)c2cc(NC(=O)c3cc(NC(=O)c4ccc(F)cc4F)cn3C)cn2C)cc1C(=O)NCCCN1CCOCC1 [Compound B-8] | ++ (++ = 4 < MIC < 12) | ++ (++ = 4 < MIC < 12) | ++ (++ = 4 < MIC < 12) | ++ (++ = 4 < MIC < 12) | ++ (++ = 4 < MIC < 12) | >32 µg/mL
4 | CN(C)CCCCNC(=O)c1cc(NC(=O)c2cc(NC(=O)c3cc(NC(=O)c4ccc(Cl)cc4F)c[nH]3)cn2C)cn1C [Compound A-15] | +++ (+++ = MIC ≦ 4) | +++ (+++ = MIC ≦ 4) | +++ (+++ = MIC ≦ 4) | +++ (+++ = MIC ≦ 4) | +++ (+++ = MIC ≦ 4) | + (+ = 12 ≦ MIC ≦ 32)
5 | Cn1cc(NC(=O)c2cc(NC(=O)c3cc(NC(=O)c4ccc(Cl)cc4)cn3C)cn2CCN2CCOCC2)cc1C(=O)NCCN1CCOCC1 [Compound D-27] | +++ (+++ = MIC ≦ 4) | +++ (+++ = MIC ≦ 4) | + (+ = 12 ≦ MIC ≦ 32) | ++ (++ = 4 < MIC < 12) | + (+ = 12 ≦ MIC ≦ 32) | >32 µg/mL
6 | Cn1cc(NC(=O)c2cc(NC(=O)c3ccc(Cl)cc3F)c[nH]2)cc1C(=O)Nc1c[nH]c(C(=O)NCCN2CCOCC2)c1 [Compound C-8] | +++ (+++ = MIC ≦ 4) | +++ (+++ = MIC ≦ 4) | +++ (+++ = MIC ≦ 4) | +++ (+++ = MIC ≦ 4) | +++ (+++ = MIC ≦ 4) | +++ (+++ = MIC ≦ 4)
7 | Cn1cc(NC(=O)c2cc(NC(=O)c3cc(NC(=O)c4ccc(Cl)cc4F)c[nH]3)cn2C)cc1C(=O)NCCc1cccnc1 [Compound A-24] | +++ (+++ = MIC ≦ 4) | ++ (++ = 4 < MIC < 12) | >32 µg/mL | +++ (+++ = MIC ≦ 4) | +++ (+++ = MIC ≦ 4) | >32 µg/mL
8 | C[C@@H]1CCC[C@H](C)N1CCNC(=O)c1cc(NC(=O)c2cc(NC(=O)c3cc(NC(=O)c4ccc(F)cc4F)c[nH]3)cn2C)cn1C [Compound A-10] | +++ (+++ = MIC ≦ 4) | ++ (++ = 4 < MIC < 12) | +++ (+++ = MIC ≦ 4) | +++ (+++ = MIC ≦ 4) | +++ (+++ = MIC ≦ 4) | ++ (++ = 4 < MIC < 12)
9 | Cn1cc(NC(=O)c2cc(NC(=O)c3cc(NC(=O)c4ccc(F)cc4F)cn3C)cn2C)cc1C(=O)NCCN1CCCC1 [Compound B-5] | +++ (+++ = MIC ≦ 4) | +++ (+++ = MIC ≦ 4) | +++ (+++ = MIC ≦ 4) | +++ (+++ = MIC ≦ 4) | +++ (+++ = MIC ≦ 4) | >32 µg/mL
10 | Cn1cc(NC(=O)c2cc(NC(=O)c3cc(NC(=O)c4ccc(F)c(F)c4)cn3C)cn2C)cc1C(=O)NCCN1CCOCC1 [Compound B-31] | +++ (+++ = MIC ≦ 4) | +++ (+++ = MIC ≦ 4) |  | ++ (++ = 4 < MIC < 12) |  | >32 µg/mL
11 | Cn1cc(NC(=O)c2cc(NC(=O)c3cc(NC(=O)c4ccc(F)c(Cl)c4)cn3C)cn2C)cc1C(=O)NCCN1CCOCC1 [Compound B-46] | +++ (+++ = MIC ≦ 4) | +++ (+++ = MIC ≦ 4) |  | +++ (+++ = MIC ≦ 4) |  | >32 µg/mL
12 | Cn1cc(NC(=O)c2cc(NC(=O)c3ccc(Cl)cc3)cn2C)cc1C(=O)NCCN1CCOCC1 [Compound B-57] | +++ (+++ = MIC ≦ 4) | +++ (+++ = MIC ≦ 4) |  | + (+ = 12 ≦ MIC ≦ 32) |  | >32 µg/mL
13 | Cn1cc(NC(=O)c2cc(NC(=O)c3ccc(F)cc3F)cn2C)cc1C(=O)NCCN1CCOCC1 [Compound B-2] | +++ (+++ = MIC ≦ 4) | +++ (+++ = MIC ≦ 4) |  | ++ (++ = 4 < MIC < 12) |  | >32 µg/mL
14 | Cn1cc(NC(=O)c2cc(NC(=O)c3cc(NC(=O)c4c(Cl)cccc4Cl)cn3C)cn2C)cc1C(=O)NCCN1CCOCC1 [Compound B-52] | >32 µg/mL | >32 µg/mL |  | >32 µg/mL |  | >32 µg/mL
15 | Cn1cc(NC(=O)c2cc(NC(=O)c3cc(NC(=O)c4cccc(F)c4)cn3C)cn2C)cc1C(=O)NCCN1CCOCC1 [Compound B-38] | + (+ = 12 ≦ MIC ≦ 32) | + (+ = 12 ≦ MIC ≦ 32) |  | + (+ = 12 ≦ MIC ≦ 32) |  | >32 µg/mL
16 | Cn1cc(NC(=O)c2cc(NC(=O)c3cc(NC(=O)c4cccc(Cl)c4)cn3C)cn2C)cc1C(=O)NCCN1CCOCC1 [Compound B-59] | ++ (++ = 4 < MIC < 12) | ++ (++ = 4 < MIC < 12) |  | + (+ = 12 ≦ MIC ≦ 32) |  | >32 µg/mL
17 | Cn1cc(NC(=O)c2cc(NC(=O)c3cc(NC(=O)c4ccc(C(F)(F)F)cc4)cn3C)cn2C)cc1C(=O)NCCN1CCOCC1 [Compound B-71] | +++ (+++ = MIC ≦ 4) | ++ (++ = 4 < MIC < 12) |  | + (+ = 12 ≦ MIC ≦ 32) |  | >32 µg/mL
18 | Cn1cc(NC(=O)c2cc(NC(=O)c3cc(NC(=O)c4ccc(Cl)cc4)c[nH]3)cn2C)cc1C(=O)NCCN1CCOCC1 [Compound A-34] | + (+ = 12 ≦ MIC ≦ 32) | ++ (++ = 4 < MIC < 12) |  | +++ (+++ = MIC ≦ 4) |  | + (+ = 12 ≦ MIC ≦ 32)
19 | Cn1cc(NC(=O)c2cc(NC(=O)c3cc(NC(=O)c4ccc(Cl)cc4Cl)cn3C)cn2C)cc1C(=O)NCCN1CCOCC1 [Compound B-55] | +++ (+++ = MIC ≦ 4) | +++ (+++ = MIC ≦ 4) |  | +++ (+++ = MIC ≦ 4) |  | >32 µg/mL
20 | Cn1cc(NC(=O)c2cc(NC(=O)c3cc(NC(=O)c4cccc(C(F)(F)F)c4)cn3C)cn2C)cc1C(=O)NCCN1CCOCC1 [Compound B-70] | + (+ = 12 ≦ MIC ≦ 32) | ++ (++ = 4 < MIC < 12) |  | + (+ = 12 ≦ MIC ≦ 32) |  | >32 µg/mL
21 | Cn1cc(NC(=O)c2cc(NC(=O)c3cc(NC(=O)c4ccc(F)cc4Cl)cn3C)cn2C)cc1C(=O)NCCN1CCOCC1 [Compound B-45] | +++ (+++ = MIC ≦ 4) | ++ (++ = 4 < MIC < 12) |  | ++ (++ = 4 < MIC < 12) |  | >32 µg/mL
22 | Cn1cc(NC(=O)c2cc(NC(=O)c3cc(NC(=O)c4ccccc4Cl)cn3C)cn2C)cc1C(=O)NCCN1CCOCC1 [Compound B-60] | + (+ = 12 ≦ MIC ≦ 32) | + (+ = 12 ≦ MIC ≦ 32) |  | + (+ = 12 ≦ MIC ≦ 32) |  | >32 µg/mL
